Experimental data as given in patent publication US20040171658A1, “Carbohydrate derivatives” (priority 2001, published 2004).
Where a name gives a salt, the structure may show the parent alone.

What was measured:
FXa = FXa (Homo sapiens, UniProt P00742); assay: Factor Xa inhibition (FXa-IC50); assay type: biochemical
Excerpt: The inhibition of factor Xa by the compounds according to the invention and the measurement of the anticoagulant and antithrombotic activity can be determined by conventional in-vitro or in-vivo methods. A suitable method is described, for example, by J. Hauptmann et al. in Thrombosis and Haemostasis 1990, 63, 220-223.
The inhibition of factor Xa can be measured, for example, by the method of T. Hara et al. in Thromb. Haemostas. 1994, 71, 314-319.

TF/FVIIa = TF/FVIIa (Homo sapiens, UniProt P08709); assay: TF/factor VIIa inhibition (TF/FVIIa-IC50); assay type: biochemical
Chain of TF/FVIIa (P08709 213-466 limits assumed): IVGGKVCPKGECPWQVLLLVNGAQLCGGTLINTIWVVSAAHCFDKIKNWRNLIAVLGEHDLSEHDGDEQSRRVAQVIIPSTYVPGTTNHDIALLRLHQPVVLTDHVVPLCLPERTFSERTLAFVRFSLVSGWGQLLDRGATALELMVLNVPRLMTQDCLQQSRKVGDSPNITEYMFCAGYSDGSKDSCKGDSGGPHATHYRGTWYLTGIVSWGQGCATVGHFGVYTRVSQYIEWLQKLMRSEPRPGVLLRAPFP
Chain of TF/FVIIa (P08709 61-212 partner limits assumed): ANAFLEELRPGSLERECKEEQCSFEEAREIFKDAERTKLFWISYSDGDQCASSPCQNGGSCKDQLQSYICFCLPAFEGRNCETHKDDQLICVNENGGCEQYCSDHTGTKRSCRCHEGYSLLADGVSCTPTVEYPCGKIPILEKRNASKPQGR
Chain of TF/FVIIa (P13726 33-295 partner): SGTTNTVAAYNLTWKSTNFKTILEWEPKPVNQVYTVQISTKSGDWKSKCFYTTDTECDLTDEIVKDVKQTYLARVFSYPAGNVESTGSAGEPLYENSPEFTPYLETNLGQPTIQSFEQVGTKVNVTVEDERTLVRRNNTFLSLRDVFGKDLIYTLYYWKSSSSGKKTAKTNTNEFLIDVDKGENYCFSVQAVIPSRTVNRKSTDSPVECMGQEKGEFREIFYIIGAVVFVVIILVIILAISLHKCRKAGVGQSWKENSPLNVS
Excerpt: The inhibition of factor VIIa by the compounds according to the invention and the measurement of the anticoagulant and antithrombotic activity can be determined by conventional in-vitro or in-vivo methods. A conventional method for the measurement of the inhibition of factor VIIa is described, for example, by H. F. Ronning et al. in Thrombosis Research 1996, 84, 73-81.

Chain of FXa (P00742 235-488 limits assumed): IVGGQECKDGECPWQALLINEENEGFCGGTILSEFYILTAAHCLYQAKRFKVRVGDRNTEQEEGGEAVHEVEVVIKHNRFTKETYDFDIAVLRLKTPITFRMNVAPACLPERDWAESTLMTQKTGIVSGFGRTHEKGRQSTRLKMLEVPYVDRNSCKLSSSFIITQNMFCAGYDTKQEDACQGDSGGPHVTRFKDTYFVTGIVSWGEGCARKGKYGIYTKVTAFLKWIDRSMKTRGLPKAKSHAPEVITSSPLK
Chain of FXa (P00742 41-179 partner limits assumed): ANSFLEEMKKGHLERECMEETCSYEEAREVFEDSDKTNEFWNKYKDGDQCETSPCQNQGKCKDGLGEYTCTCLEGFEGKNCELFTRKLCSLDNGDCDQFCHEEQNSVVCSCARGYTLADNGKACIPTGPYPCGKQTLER

IC50 (FXa) [nM]	IC50 (TF/FVIIa) [µM]	melting point	Structure (SMILES)
150	0.1		N=C(N)c1ccc(O[C@@H]2CO[C@H]3[C@@H]2OC[C@@H]3Oc2cccc(C(=N)N)c2)cc1 [Compound B1, 2-O-(3′-Amidinophenyl)-5-O-(4″-amidinophenyl)-1,4:3,6-dianhydro-D-sorbitol]
2100	3.9		N=C(N)c1ccc(O[C@@H]2CO[C@H]3[C@@H]2OC[C@@H]3OCc2cccc(C(=N)N)c2)cc1 [Compound A2, 2-O-(3′-amidinobenzyl)-5-O-(4″-amidinophenyl)-1,4:3,6-dianhydro-D-sorbitol]
3000	6		N=C(N)c1cccc(O[C@H]2CO[C@H]3[C@@H]2OC[C@H]3Oc2cccc(C(=N)N)c2)c1 [Compound B2, 2-O-(3′-amidinophenyl)-5-O-(3″-amidinophenyl)-1,4:3,6-dianhydro-D-sorbitol]
7900			N=C(N)c1cccc(CO[C@H]2CO[C@H]3[C@@H]2OC[C@H]3Oc2cccc(C(=N)N)c2)c1 [Compound A1, 2-O-(3′-Amidinobenzyl)-5-O-(3″-amidinophenyl)-1,4:3,6-dianhydro-D-sorbitol]
		225 °C (dec.)	N=C(N)c1ccc(O[C@@H]2CO[C@H]3[C@@H]2OC[C@@H]3Oc2cccc(C(=N)N)c2)cc1 (as salt: trifluoroacetate) [Compound B1, 2-O-(3′-Amidinophenyl)-5-O-(4″-amidinophenyl)-1,4:3,6-dianhydro-D-sorbitol]
		155 °C	N=C(N)c1cccc(CO[C@H]2CO[C@H]3[C@@H]2OC[C@H]3Oc2cccc(C(=N)N)c2)c1 (as salt: trifluoroacetate) [Compound A1, 2-O-(3′-Amidinobenzyl)-5-O-(3″-amidinophenyl)-1,4:3,6-dianhydro-D-sorbitol]
